≈ marks a conversion by molar mass, not a printed value. Where two headings read alike, the source gives them in different places.
What was measured:
[1] = Ion chromatograph and total nitrogen analysis of electrolyzed amikacin sulfate solution; format: physicochemical; conditions: for Nitrogen Concentration Org-N: T-N minus NO3—N, NO2—N, NH4—N
[2] = system: Escherichia coli (coliform bacillus) NIHJ JC-2; experiment: Test of antibacterial activity of amikacin sulfate (MIC, small amount broth dilution); format: cell-based
Experimental: (§1) In accordance with the MIC measurement by a small amount broth dilution method which is the standard method of the Japanese Society of Chemotherapy, the antibacterial activity of amikacin sulfate was evaluated. As the culture medium for measuring sensitivity, Cation Supplemented Mueller-Hinton Broth: CSMHB (obtained from EIKEN CHEMICAL CO., LTD.) was employed. This CSMHB was dividedly-poured 90 μl each into a U-shaped bottom 96-well microplate. Samples taken 0, 2, 4 and 6 hours from initiation of electrolysis described in the above 1. were prepared. A diluted solution was prepared in accordance with the standard method for each of these samples. […] The bacilli used in the present example are identical to the two types of bacilli used in Example 1, i.e. Staphylococcus aureus (staphylococcus bacteria) FDA […] and Escherichia coli (coliform bacillus) NIHJ JC-2. A solution including bacillus for inoculation similar to that of Example 1 was prepared. The solution including bacillus was inoculated approximately 0.005 ml each into each well of the plate set forth above within 15 minutes from preparation of the solution including bacillus. In this plate, a medium not containing the agent was poured into 1-2 wells as the control of the growth of the bacillus. Cultivation was conducted for 18 to 24 hours at 35° C. The evaluation method is identical to that employed in Example 1.

[3] = system: Staphylococcus aureus (staphylococcus bacteria) FDA 209P; experiment: as above; format: cell-based
Experimental: as §1

[4] = High performance liquid chromatograph analysis of electrolyzed amikacin sulfate solution; format: physicochemical
[5] = system: Escherichia coli (coliform bacillus) NIHJ JC-2; experiment: Sterilizing activity test of glutaral (MIC, small amount broth dilution, 60 minutes contact); format: cell-based
Experimental: (§2) The sterilizing activity of glutaral was evaluated based on MIC measurement by a small amount broth dilution method, which is the standard method of the Japanese Society of Chemotherapy. In the present example, the presence of bacillus by the bacterial number of survivals after a solution including bacillus was brought into contact with glutaral for a predetermined period of time (60 minutes) taking into account the fact that sterilization is neutralized when glutaral is mixed with the culture medium. The pharmaceutical stock solution disclosed in the standard method was replaced with the sample of the present example for testing. As the culture medium for measuring sensitivity, Cation Supplemented Mueller-Hinton Broth: CSMHB (obtained from EIKEN CHEMICAL CO., LTD.) was used. This CSMHB was dividedly-poured 90 μl each into a U-shaped bottom 96-well microplate. This is called Plate 1. The samples taken 0, 2, 4 and 6 hours from initiation of electrolysis described in the above 1. were prepared. In accordance with the method of [Example 1] recited in the additional rule of the standard method, a diluted solution of sterilized phosphate buffer (PBS) was produced for each sample. In the present example, the test was carried out at 1⁄2 the scale cited in the standard method. The containing amount of glutaral in the first tube was approximately 1000 μg/ml titer. The PBS dilution was dividedly-poured 0.1 ml each into another U-shaped microplate. This is called plate 2. In the present example, Staphylococcus aureus (staphylococcus bacteria) […] and Escherichia coli (coliform bacillus) NIHJ JC-2 strain were employed as the bacilli for testing sensitivity. The bacillus to be tested on an agar media cultured overnight was suspended to 0.5 Mc Farland (approximately 10^8 CFU/ml) and diluted by ten times (approximately 10^7 CFU/ml) with sterilized physiologic saline as the solution including bacillus for inoculation. The water to be treated and the solution including bacillus were inoculated and mixed 0.01 ml each in each well of Plate 1 within 15 minutes from preparation of the solution including bacillus. In Plate 1, a culture medium not containing the agent was poured into 1-2 wells as the control of growth of bacillus. At an elapse of 60 minutes from the mixing, 10 μl of the solution of plate 2 was each introduced into the same well of Plate 1. Then, cultivation was conducted for 18 to 24 hours at 35° C. The criteria of Positive Growth (+) and Inhibited Growth (-) after cultivation was determined as set forth below. Positive growth (+) was accepted when cloudiness was identified by the naked eye or a precipitate of at least 1 mm in diameter, or when two or more masses of precipitate, even though the diameter thereof is below 1 mm, was identified. Inhibited growth (-) was accepted when cloudiness by the naked eye was not identified, or when only one precipitate with a diameter below 1 mm was identified.

[6] = system: Staphylococcus aureus (staphylococcus bacteria) 209P; experiment: as above; format: cell-based
Experimental: as §2

[7] = Gas chromatograph evaluation of decomposition of glutaral by electrolysis; format: physicochemical; conditions: six hours from initiation of electrolysis
[8] = system: MOLT-4 cell; experiment: Cytotoxicity (CC50) test, WST-8; format: cell-based, human
Excerpt: For the measurement of the number of cells, tetrazolium salt WST-8 (Cell Counting Kit-8 available as a kit) was employed as the chromophone. The basic principle of the cytotoxicity (CC50) test is set forth below. WST-8 is reduced by intracellular dehydrogenation enzyme to produce soluble formazan. Since the number of cells and the amount of generated formazan is linearly proportional, the number of cells can be readily measured by directly measuring the absorbancy of formazan at 450 nm. The specific procedure for measurement is set forth below. 180 μl of a culture medium was introduced into each of the wells in the range of rows A-D and columns 3-10 in a 96-well flat microtiter plate for diluting the agent. 240 μl of the sample taken at 0 hours from initiation of electrolysis was added to the well of row A, column 2 in the microtiter plate. 240 μl of the sample taken 2 hours from initiation of electrolysis was added to the well of row B, column 2. 240 μl of the sample taken 4 hours from initiation of electrolysis was added to the well of row C, column 2. 240 μl of the sample taken 6 hours from initiation of electrolysis was added to the well of row D, column 2. To produce respective columns of sample dilutions, samples of 60 μl each was taken from the above-described samples of 240 μl. These samples of 60 μl were sequentially added to the right side well to be sufficiently pipeted. This was conducted up to column 10. Two of U-bottom 96-well microtiter plates for cultivation were prepared, and 200 μl of PBS was applied to all the side-most wells. 100 μl of culture medium was introduced into each of the wells of rows B-G, columns 2-9. 150 μl of culture medium was introduced into the wells of columns 10 and 11. Then, 50 μl of cell suspension solution prepared to 5×10^6 cell/ml was introduced into each of the wells of rows B-G, columns 2-9 and column 11. The wells of column 10 were absent of cells. […] Then, the O.D. was measured at 450 nm and 620 nm using a microplate reader.

[9] = 6 hours from initiation of electrolysis
[10] = 6 hours from initiation of electrolysis, calculated
[11] = electrolysis for 6 hours or more, from formula value

NCC[C@H](O)C(=O)N[C@@H]1C[C@H](N)[C@@H](O[C@H]2O[C@H](CN)[C@@H](O)[C@H](O)[C@H]2O)[C@H](O)[C@H]1O[C@H]1O[C@H](CO)[C@@H](O)[C@H](N)[C@H]1O.O=S(=O)(O)O.O=S(=O)(O)O [amikacin sulfate, Amikacin sulfate]
Nitrate nitrogen (NO3—N) share of the total nitrogen (T-N) [1, 9]: approximately 50%
ammonia nitrogen (NH4—N) share of the total nitrogen (T-N) [1, 9]: approximately 50%
Nitrogen Concentration NH4—N ([1]; electrolyzing time 0 hours): 0 mg/L
Nitrogen Concentration NO2—N ([1]; electrolyzing time 0 hours): 0 mg/L
Nitrogen Concentration NO3—N ([1]; electrolyzing time 0 hours): 0.22 mg/L
Nitrogen Concentration T-N ([1]; electrolyzing time 0 hours): 80.1 mg/L
Nitrogen Concentration Org-N ([1]; electrolyzing time 0 hours): 79.88 mg/L
Nitrogen Concentration NH4—N ([1]; electrolyzing time 1 hour): 4.18 mg/L
Nitrogen Concentration NO2—N ([1]; electrolyzing time 1 hour): 0 mg/L
Nitrogen Concentration NO3—N ([1]; electrolyzing time 1 hour): 1 mg/L
Nitrogen Concentration Org-N ([1]; electrolyzing time 1 hour): 25.52 mg/L
Nitrogen Concentration NH4—N ([1]; electrolyzing time 2 hours): 9.06 mg/L
Nitrogen Concentration NO2—N ([1]; electrolyzing time 2 hours): 0 mg/L
Nitrogen Concentration NO3—N ([1]; electrolyzing time 2 hours): 2.39 mg/L
Nitrogen Concentration T-N ([1]; electrolyzing time 2 hours): 29.65 mg/L
Nitrogen Concentration Org-N ([1]; electrolyzing time 2 hours): 18.20 mg/L
Nitrogen Concentration NH4—N ([1]; electrolyzing time 3 hours): 10.93 mg/L
Nitrogen Concentration NO2—N ([1]; electrolyzing time 3 hours): 0 mg/L
Nitrogen Concentration NO3—N ([1]; electrolyzing time 3 hours): 4.21 mg/L
Nitrogen Concentration T-N ([1]; electrolyzing time 3 hours): 32.17 mg/L
Nitrogen Concentration Org-N ([1]; electrolyzing time 3 hours): 17.03 mg/L
Nitrogen Concentration NH4—N ([1]; electrolyzing time 4 hours): 13.43 mg/L
Nitrogen Concentration NO2—N ([1]; electrolyzing time 4 hours): 0 mg/L
Nitrogen Concentration NO3—N ([1]; electrolyzing time 4 hours): 8.6 mg/L
Nitrogen Concentration T-N ([1]; electrolyzing time 4 hours): 32.75 mg/L
Nitrogen Concentration Org-N ([1]; electrolyzing time 4 hours): 10.72 mg/L
Nitrogen Concentration NH4—N ([1]; electrolyzing time 5 hours): 16 mg/L
Nitrogen Concentration NO2—N ([1]; electrolyzing time 5 hours): 0 mg/L
Nitrogen Concentration NO3—N ([1]; electrolyzing time 5 hours): 11.82 mg/L
Nitrogen Concentration T-N ([1]; electrolyzing time 5 hours): 33.04 mg/L
Nitrogen Concentration Org-N ([1]; electrolyzing time 5 hours): 5.22 mg/L
Nitrogen Concentration NH4—N ([1]; electrolyzing time 6 hours): 17.84 mg/L
Nitrogen Concentration NO2—N ([1]; electrolyzing time 6 hours): 0 mg/L
Nitrogen Concentration NO3—N ([1]; electrolyzing time 6 hours): 16.94 mg/L
Nitrogen Concentration T-N ([1]; electrolyzing time 6 hours): 32.27 mg/L
Nitrogen Concentration Org-N ([1]; electrolyzing time 6 hours): -2.51 mg/L
minimum inhibitory concentration (MIC) ([2]; 6 hours from initiation of electrolysis, as tested): > 100 µg/mL
minimum inhibitory concentration (MIC) ([2]; electrolyzing time 0 hours): 3.125 µg/mL
relative value of the MIC (MIC at 0 hours set as 1) ([2]; electrolyzing time 0 hours): 1
minimum inhibitory concentration (MIC) ([2]; electrolyzing time 2 hours): 12.5 µg/mL
relative value of the MIC (MIC at 0 hours set as 1) ([2]; electrolyzing time 2 hours): ¼
minimum inhibitory concentration (MIC) ([2]; electrolyzing time 4 hours): 50 µg/mL
relative value of the MIC (MIC at 0 hours set as 1) ([2]; electrolyzing time 4 hours): 1/16
minimum inhibitory concentration (MIC), calculated based on formula (4) ([2]; electrolyzing time 6 hours, calculated): 664 µg/mL
relative value of the MIC (MIC at 0 hours set as 1) ([2]; electrolyzing time 6 hours, from calculated MIC): 1/212
minimum inhibitory concentration (MIC) ([3]; electrolyzing time 0 hours): 0.195 µg/mL
relative value of the MIC (MIC at 0 hours set as 1) ([3]; electrolyzing time 0 hours): 1
minimum inhibitory concentration (MIC) ([3]; electrolyzing time 2 hours): 1.56 µg/mL
relative value of the MIC (MIC at 0 hours set as 1) ([3]; electrolyzing time 2 hours): ⅛
minimum inhibitory concentration (MIC) ([3]; electrolyzing time 4 hours): 6.25 µg/mL
relative value of the MIC (MIC at 0 hours set as 1) ([3]; electrolyzing time 4 hours): 1/32
minimum inhibitory concentration (MIC) ([3]; electrolyzing time 6 hours): 100 µg/mL
relative value of the MIC (MIC at 0 hours set as 1) ([3]; electrolyzing time 6 hours): 1/512
amikacin sulfate decomposed ([4]; 2 hours from initiation of electrolysis): approximately 90%
amikacin sulfate decomposed ([4]; 4 hours and thereafter from initiation of electrolysis): approximately 99%
Concentration of amikacin sulfate ([4]; electrolyzing time 0 hours (taken as 1,000 mg/L)): 1000 µg/mL
Concentration of amikacin sulfate ([4]; electrolyzing time 2 hours, from peak area at retention time 4.2 minutes): 98.579 µg/mL
Concentration of amikacin sulfate ([4]; electrolyzing time 4 hours, from peak area at retention time 4.2 minutes): 15.914 µg/mL
Concentration of amikacin sulfate ([4]; electrolyzing time 6 hours, from peak area at retention time 4.2 minutes): 10.911 µg/mL

O=CCCCC=O [glutaral]
minimum inhibitor concentration obtained from approximation formula 2 [5, 10]: 4600 µg/mL (≈ 45.9 mM)
minimum inhibitor concentration relative to before electrolysis [5, 11]: approximately 1/37
minimum inhibitor concentration ([5]; electrolyzing time 0 hours): 31.25 µg/mL (≈ 0.312 mM)
relative value of the minimum inhibitor concentration (when preceding electrolysis is 1) ([5]; electrolyzing time 0 hours): 1
minimum inhibitor concentration ([5]; electrolyzing time 2 hours): 125 µg/mL (≈ 1.25 mM)
relative value of the minimum inhibitor concentration (when preceding electrolysis is 1) ([5]; electrolyzing time 2 hours): ¼
minimum inhibitor concentration ([5]; electrolyzing time 4 hours): >1000 µg/mL
relative value of the minimum inhibitor concentration (when preceding electrolysis is 1) ([5]; electrolyzing time 4 hours): < 1/32
minimum inhibitor concentration ([5]; electrolyzing time 6 hours): >1000 µg/mL
relative value of the minimum inhibitor concentration (when preceding electrolysis is 1) ([5]; electrolyzing time 6 hours): < 1/32
minimum inhibitor concentration obtained from approximation formula 1 [6, 10]: 1150 µg/mL (≈ 11.5 mM)
minimum inhibitor concentration relative to before electrolysis [6, 11]: approximately 1/18
minimum inhibitor concentration ([6]; electrolyzing time 0 hours): 62.5 µg/mL (≈ 0.624 mM)
relative value of the minimum inhibitor concentration (when preceding electrolysis is 1) ([6]; electrolyzing time 0 hours): 1
minimum inhibitor concentration ([6]; electrolyzing time 2 hours): 125 µg/mL (≈ 1.25 mM)
relative value of the minimum inhibitor concentration (when preceding electrolysis is 1) ([6]; electrolyzing time 2 hours): ½
minimum inhibitor concentration ([6]; electrolyzing time 4 hours): 500 µg/mL (≈ 4.99 mM)
relative value of the minimum inhibitor concentration (when preceding electrolysis is 1) ([6]; electrolyzing time 4 hours): ⅛
minimum inhibitor concentration ([6]; electrolyzing time 6 hours): >1000 µg/mL
relative value of the minimum inhibitor concentration (when preceding electrolysis is 1) ([6]; electrolyzing time 6 hours): < 1/16
GC peak area (RT 3.14 minutes) relative to sample of 0 hours [7]: 1/25

OCl [hypochlorous acid]
contribution to cytotoxicity [8]: almost no contribution to cytotoxicity

O=S([O-])([O-])=S.[Na+].[Na+] [sodium thiosulfate]
contribution to cytotoxicity ([8]; in the electrolyzed samples, Molt-4 cells): almost no contribution to cytotoxicity

— patent US7361263B2, “Water treatment apparatus and method” (Sanyo Electric Co., Ltd., priority 2002, dated 2008)
